Legend:
MMP-2 [1] = target: T1, MMP-2 (Homo sapiens, UniProt P08253); assay: Inhibition of MMP enzymatic activity, hydrolysis of fluorescent synthetic substrate; type: biochemical; conditions: MMP-2, Gélatinase A
T1 sequence (P08253 110-660): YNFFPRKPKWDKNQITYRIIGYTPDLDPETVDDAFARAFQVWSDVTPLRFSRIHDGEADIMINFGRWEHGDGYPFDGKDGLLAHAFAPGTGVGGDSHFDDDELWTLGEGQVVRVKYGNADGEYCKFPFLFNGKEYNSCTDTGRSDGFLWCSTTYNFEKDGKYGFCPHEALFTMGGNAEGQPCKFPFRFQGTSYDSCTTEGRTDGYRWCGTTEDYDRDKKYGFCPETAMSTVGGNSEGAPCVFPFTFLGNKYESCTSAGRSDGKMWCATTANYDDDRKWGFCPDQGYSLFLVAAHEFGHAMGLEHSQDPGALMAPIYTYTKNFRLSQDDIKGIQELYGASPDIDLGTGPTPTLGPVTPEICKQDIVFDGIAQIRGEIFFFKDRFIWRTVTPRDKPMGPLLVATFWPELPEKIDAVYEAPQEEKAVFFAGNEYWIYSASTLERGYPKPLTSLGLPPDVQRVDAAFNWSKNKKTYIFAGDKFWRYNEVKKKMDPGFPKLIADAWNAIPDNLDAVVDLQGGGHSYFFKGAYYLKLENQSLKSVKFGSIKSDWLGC
Source text: (§1) On a démontré l'effet d'inhibition d'acides gras selon l'invention vis à vis de différentes métalloprotéinases matricielles. A cet effet, on a déterminé l'activité enzymatique de ces MMPs en utilisant un substrat synthétique fluorescent, le (7- méthoxycoumarine-4-yl) acétyl-Pro-Leu-Gly-Leu-(3-[2,4-dinitrophényl]-L-2,3-diaminopropionyl)-Ala-ArgNH2. Les MMPs peuvent cliver de façon spécifique la liaison amide qui lie les acides aminés Gly et Leu de ce substrat.
(§2) L'hydrolyse s'accompagne d'une augmentation sensible de la fluorescence qui peut être suivie et quantifiée à l'aide d'un spectrofluorimètre aux longueurs d'onde choisies. Suite à la rupture de la liaison Gly-Leu, le groupement dinitrophényl ne peut plus masquer la fluorescence du groupement 7-méthoxycoumarine.
(§3) On a réalisé cette hydrolyse du substrat par la MMP-2 et la MMP-9 en absence ou en présence de différentes concentrations d'acides gras selon l'invention. Les constantes d'inhibition (Ki) de l'activité enzymatique ont pu être ainsi déterminées. Les résultats obtenus figurent dans le Tableau I ci-dessous. Tableau I

MMP-9 [2] = target: T2, MMP-9 (Homo sapiens, UniProt P14780); assay: as above; type: biochemical; conditions: MMP-9, Gélatinase B
Source text: as §1, §2, §3
Target sequence in this assay (P14780 94-707): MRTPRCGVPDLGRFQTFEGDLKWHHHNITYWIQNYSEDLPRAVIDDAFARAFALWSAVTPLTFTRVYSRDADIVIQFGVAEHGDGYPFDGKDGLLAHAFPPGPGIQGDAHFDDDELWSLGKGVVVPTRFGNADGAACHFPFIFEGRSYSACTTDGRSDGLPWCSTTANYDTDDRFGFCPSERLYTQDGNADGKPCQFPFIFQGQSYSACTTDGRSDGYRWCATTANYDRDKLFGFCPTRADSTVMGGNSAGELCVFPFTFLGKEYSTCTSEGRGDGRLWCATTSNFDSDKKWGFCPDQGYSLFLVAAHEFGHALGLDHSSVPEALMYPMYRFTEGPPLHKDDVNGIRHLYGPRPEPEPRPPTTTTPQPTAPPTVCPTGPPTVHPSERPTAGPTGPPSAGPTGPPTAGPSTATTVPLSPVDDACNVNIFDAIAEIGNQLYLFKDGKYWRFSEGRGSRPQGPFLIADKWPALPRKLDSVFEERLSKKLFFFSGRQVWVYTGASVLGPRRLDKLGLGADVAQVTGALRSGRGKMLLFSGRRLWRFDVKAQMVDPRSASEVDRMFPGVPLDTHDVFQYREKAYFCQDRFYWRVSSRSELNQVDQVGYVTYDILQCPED

élastase leucocytaire = target: T3, élastase leucocytaire (Homo sapiens, UniProt P08246); assay: Ex vivo protection of elastic fibres: skin sections pre-incubated with fatty acid, then enzyme; type: biochemical, humaine; conditions: section pre-incubated with fatty acid; degradation of elastic fibres by élastase leucocytaire; concentration not given
T3 construct: L'enzyme sous sa forme activée a été incubée pendant 15 min
T3 sequence (P08246 30-267): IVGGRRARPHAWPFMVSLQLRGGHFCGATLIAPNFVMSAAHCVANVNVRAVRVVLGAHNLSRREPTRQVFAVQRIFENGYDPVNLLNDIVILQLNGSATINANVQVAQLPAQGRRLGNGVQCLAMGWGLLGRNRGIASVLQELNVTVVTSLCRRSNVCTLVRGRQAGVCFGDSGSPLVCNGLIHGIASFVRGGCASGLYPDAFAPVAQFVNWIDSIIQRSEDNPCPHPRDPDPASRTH
Source text: (§4) Les études ex vivo ont été réalisées sur des coupes de peau humaine issues de prépuces d'enfants âgés de 10 à 24 mois. Les coupes mises en oeuvre étaient des coupes de congélation de 8 µm d'épaisseur, sériées.
(§5) L'effet protecteur de la matrice extra-cellulaire a été déterminé de la façon suivante : les lames portant les coupes de peau ont été incubées sous agitation douce pendant 4 heures dans l'éthanol pur contenant l'acide gras selon l'invention à la concentration désirée. Puis les coupes ont été rincées et séchées. L'enzyme a alors été déposée sur la coupe, la lame a été mise à incuber en atmosphère humide à 37°C pendant 4 à 18 heures. A la fin de l'incubation, les lames ont été colorées avec les colorants spécifiques de l'élastine ou des collagènes mentionnés plus haut.
Les résultats obtenus ont été déterminés selon le principe de quantification suivant: les fibres élastiques ont été colorées de façon spécifique par la + catéchine, et ont été quantifiées grâce à un système morphométrique précis et automatisé. Les lames ont été observées sous microscope équipé d'une caméra. Les images générées ont été converties en niveaux de gris correspondant aux composants à étudier. Les plus petites particules ne correspondant pas à ces éléments ont été éliminées de l'analyse. […] L'aire occupée par les trousseaux collagéniques a pu être quantifiée selon la même procédure. […]

MMP-2 [3] = target: T1, MMP-2; assay: Ex vivo inhibition of enzyme activity on human skin sections: collagen bundle hydrolysis, enzyme pre-incubated with fatty acid; type: biochemical, humaine; set-up: L'enzyme sous sa forme activée a été incubée pendant 15 min; conditions: for inhibition at 1 µM / inhibition at 10 µM: hydrolysis of collagen bundles by MMP-2, human skin sections, read-out: % d'inhibition; for hydrolyse des trousseaux collagéniques (observation): MMP-2 pre-incubated with fatty acid
Method: as §4
(§6) L'effet inhibiteur de l'activité enzymatique a été déterminé de la manière suivante : les enzymes testées étaient les suivantes : MMP-2, MMP-9 ou élastase leucocytaire. L'enzyme sous sa forme activée a été incubée pendant 15 min avec différentes concentrations d'acides gras selon l'invention, puis la solution contenant l'enzyme et l'inhibiteur a été déposée sur la coupe de peau humaine et incubée 4 à 18 heures à 37°C dans une atmosphère humide.
(§7) A la fin de l'incubation, les coupes ont été colorées avec des colorants spécifiques. Le colorant de l'élastine est la + catéchine et celui des collagènes est le rouge sirius.
(§8) Les résultats obtenus ont été déterminés selon le principe de quantification suivant: les fibres élastiques ont été colorées de façon spécifique par la + catéchine, et ont été quantifiées grâce à un système morphométrique précis et automatisé. Les lames ont été observées sous microscope équipé d'une caméra. Les images générées ont été converties en niveaux de gris correspondant aux composants à étudier. Les plus petites particules ne correspondant pas à ces éléments ont été éliminées de l'analyse. Un programme spécifique a permis de calculer ensuite la surface relative occupée par les fibres. Avec les fibres élastiques on a pu calculer l'aire et également le volume occupé par celles-ci, puisque leur longueur est supérieure à leur largeur. L'aire occupée par les trousseaux collagéniques a pu être quantifiée selon la même procédure.
On a étudié l'activité protéolytique de la MMP-2 sur les collagènes. Lorsque la MMP-2 est ajoutée sur les coupes de peau, on a pu observer une hydrolyse des trousseaux collagéniques, ceux-ci étant moins denses et moins nombreux. De plus l'épiderme était décollé. L'hydrolyse était de 34 % environ.

MMP-9 [4] = target: T2, MMP-9; assay: Ex vivo inhibition of enzyme activity on human skin sections: elastic fibre hydrolysis, enzyme pre-incubated with fatty acid; type: biochemical, humaine; set-up: L'enzyme sous sa forme activée a été incubée pendant 15 min; conditions: for inhibition at 1 µM / inhibition at 10 µM: hydrolysis of elastic fibres by MMP-9, human skin sections, read-out: % d'inhibition; for inhibition de l'activité de la MMP-9 (observation): MMP-9 pre-incubated with fatty acid, elastic fibres
Method: as §4, §6, §7, §8
Target sequence in this assay (P14780 107-707 limits assumed): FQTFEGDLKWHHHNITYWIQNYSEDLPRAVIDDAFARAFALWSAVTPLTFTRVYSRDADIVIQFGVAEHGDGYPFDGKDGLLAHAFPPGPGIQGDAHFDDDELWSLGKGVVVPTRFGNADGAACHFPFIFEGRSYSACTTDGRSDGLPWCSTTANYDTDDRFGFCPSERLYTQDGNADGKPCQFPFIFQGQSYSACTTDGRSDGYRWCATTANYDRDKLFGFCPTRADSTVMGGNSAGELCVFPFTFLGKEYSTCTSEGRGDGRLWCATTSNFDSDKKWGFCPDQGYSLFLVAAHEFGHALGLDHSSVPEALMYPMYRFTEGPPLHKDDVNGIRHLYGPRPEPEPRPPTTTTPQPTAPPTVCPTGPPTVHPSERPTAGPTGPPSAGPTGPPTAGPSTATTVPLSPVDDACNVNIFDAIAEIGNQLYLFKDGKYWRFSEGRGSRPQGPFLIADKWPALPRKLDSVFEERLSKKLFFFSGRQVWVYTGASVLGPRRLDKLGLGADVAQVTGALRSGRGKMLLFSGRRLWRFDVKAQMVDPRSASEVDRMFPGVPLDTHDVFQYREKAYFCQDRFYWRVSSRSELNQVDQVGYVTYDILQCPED
Dans le cas de la MMP-9, on a étudié l'hydrolyse des fibres élastiques. En effet, à l'inverse de la MMP-2, la MMP-9 possède essentiellement une activité élastinolytique in situ.
Au niveau des fibres élastiques matures du derme moyen, on a observé une hydrolyse par la MMP-9. Les fibres élastiques étaient courtes et en paquets au lieu d'être longues et bien individualisées. L'hydrolyse était de 35 % environ. […] La quantification de l'hydrolyse des fibres élastiques par la MMP-9 en fonction des différents traitements a permis de déterminer le pourcentage d'inhibition de l'activité enzymatique. Les résultats obtenus figurent dans le Tableau III suivant : Tableau III

MMP-2 [5] = target: T1, MMP-2; assay: Ex vivo protection of extracellular matrix fibres: skin sections pre-incubated with fatty acid, then enzyme; type: biochemical, humaine; set-up: L'enzyme sous sa forme activée a été incubée pendant 15 min; conditions: then MMP-2; for % de protection: 10 µM
Source text: as §4, §5, §8
Les trousseaux étaient plus denses, plus épais, leurs extrémités étaient moins effilochées, le réseau apparaissait plus dense. […] La quantification des fibres a permis d'obtenir les résultats figurant dans le Tableau IV suivant : Tableau IV

MMP-9 [6] = target: T2, MMP-9; assay: as above; type: biochemical, humaine; set-up: L'enzyme sous sa forme activée a été incubée pendant 15 min; conditions: then MMP-9; for % de protection: 10 µM
Source text: as §4, §5, §8
Target sequence in this assay (P14780 107-707 limits assumed): as above
Les résultats obtenus figurent dans le Tableau V ci-après : Tableau V

MMP-1 = target: T4, MMP-1 (Homo sapiens, UniProt P03956); assay: Inhibition of MMP enzymatic activity, hydrolysis of fluorescent synthetic substrate; type: biochemical; conditions: MMP-1, Collagénase intersticielle
T4 sequence (P03956 100-469): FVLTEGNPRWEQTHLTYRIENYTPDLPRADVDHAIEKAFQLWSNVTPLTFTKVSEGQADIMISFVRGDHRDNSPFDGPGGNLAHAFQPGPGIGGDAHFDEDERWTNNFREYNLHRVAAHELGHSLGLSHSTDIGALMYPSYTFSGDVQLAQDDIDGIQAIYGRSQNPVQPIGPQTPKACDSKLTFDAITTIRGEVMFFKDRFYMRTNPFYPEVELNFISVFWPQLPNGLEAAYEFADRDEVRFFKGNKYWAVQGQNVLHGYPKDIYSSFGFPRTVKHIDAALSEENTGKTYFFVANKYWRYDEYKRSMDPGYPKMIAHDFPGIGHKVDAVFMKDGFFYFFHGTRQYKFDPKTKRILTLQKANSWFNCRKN

MMP-3 = MMP-3 (Homo sapiens, UniProt P08254); assay: as above; type: biochemical; conditions: MMP-3, Stromélysine-1
Sequence of MMP-3 (P08254 100-477): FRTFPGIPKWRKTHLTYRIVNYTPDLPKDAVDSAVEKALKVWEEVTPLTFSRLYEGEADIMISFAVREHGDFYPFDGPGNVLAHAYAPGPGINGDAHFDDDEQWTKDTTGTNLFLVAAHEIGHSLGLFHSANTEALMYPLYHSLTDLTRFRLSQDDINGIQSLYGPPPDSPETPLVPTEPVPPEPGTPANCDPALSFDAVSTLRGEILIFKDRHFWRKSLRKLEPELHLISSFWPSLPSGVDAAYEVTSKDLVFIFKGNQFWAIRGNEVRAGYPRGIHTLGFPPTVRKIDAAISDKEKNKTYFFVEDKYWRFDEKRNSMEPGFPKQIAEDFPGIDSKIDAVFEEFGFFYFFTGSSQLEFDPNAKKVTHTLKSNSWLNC

CC/C=C/C=C/C=C/C=C\CCCCCCCC(=O)O [acide cis-parinarique]
Ki (MMP-2 [1]): 8 µM | Ki (MMP-9 [2]): 14 µM | protection (élastase leucocytaire): 58% | inhibition at 1 µM (MMP-2 [3]): 18% | hydrolyse des trousseaux collagéniques (observation) (MMP-2 [3]; 10 µM): inhibait moins l'activité enzymatique | inhibition at 10 µM (MMP-2 [3]; 10 µM): 40% | inhibition at 1 µM (MMP-9 [4]): 10% | inhibition at 10 µM (MMP-9 [4]): 24% | inhibition de l'activité de la MMP-9 (observation) (MMP-9 [4]): Cette inhibition est retrouvée

CC/C=C/C=C/C=C/C=C/CCCCCCCC(=O)O [acide trans-parinarique]
Ki (MMP-2 [1]): 24 µM | Ki (MMP-9 [2]): 1.9 µM | hydrolyse des trousseaux collagéniques (observation) (MMP-2 [3]; 1 µM): l'hydrolyse a été diminuée | inhibition at 1 µM (MMP-2 [3]): 12% | hydrolyse des trousseaux collagéniques (observation) (MMP-2 [3]; 10 µM): l'hydrolyse était nettement diminuée | inhibition at 10 µM (MMP-2 [3]; 10 µM): 56% | inhibition at 1 µM (MMP-9 [4]): 16% | inhibition at 10 µM (MMP-9 [4]): 48% | inhibition de l'activité de la MMP-9 (observation) (MMP-9 [4]): inhibe l'activité de celle-ci | % de protection (MMP-2 [5]): 61% | hydrolyse des trousseaux collagéniques (observation) (MMP-2 [5]): hydrolyse des trousseaux collagéniques nettement moins marquées | % de protection (MMP-9 [6]): 75% | hydrolyse des fibres élastiques (observation) (MMP-9 [6]): l'hydrolyse des fibres préélastiques du derme superficiel était diminuée

CCCCCCCC/C=C/CCCCCCCC(=O)O [acide élaïdique]
Ki (MMP-1): 2.7 µM | Ki (MMP-2 [1]): 4.25 µM | Ki (MMP-9 [2]): 5.8 µM | Ki (MMP-3): 1.8 µM | % de protection (MMP-2 [5]): 32% | hydrolyse des trousseaux collagéniques (observation) (MMP-2 [5]): La même constatation a pu être faite | % de protection (MMP-9 [6]): 98% | hydrolyse des fibres élastiques (observation) (MMP-9 [6]): l'hydrolyse des fibres élastiques matures du derme moyen par la MMP-9 était nettement diminuée

Reference: patent publication EP0985409A1, “Cosmetic use of fatty acids” (Shiseido International France SA, priority 1998, dated 2000)
